# From US20240165089A1, “METHOD FOR TREATING MYOPIA WITH VINPOCETINE” (EYE HOSPITAL, WENZHOU MEDICAL UNIVERSITY, priority 2021, published 2024)
# Several values for one entry are separate records, joined by “and”; a condition that tells them apart may be missing. Equal entries are not always repeated. Where two headings read alike, the source gives them in different places.
# Assays:
# [1] = test system: choroid of FDM guinea pigs; assay: choroidal thickness and blood flow by OCTA, FDM group; format: in vivo, guinea pig
# Protocol: The choroidal blood flow parameters and choroidal thickness were measured for the animals in the above FDM group after 1 week of continuous administration and at the end of the 2 week-administration experiment and for the animals in the LIM group at the end of the 7 day-administration experiment. Choroidal blood flow parameters and thickness were measured using a modified commercial OCTA (Spectralis HRA+OCT, OCTA, Heidelberg, Germany) which is more suitable for animal eyeballs. Before the measurement, the guinea pigs were fully anesthetized (a mixture of ketamine hydrochloride 60 mg/kg and xylazine hydrochloride 9 mg/kg, intraperitoneally injected), and then the guinea pig OCTA images were obtained, and the measurement results were quantified through a self-written program (MatLab R2017a, MathWorks). Real-time quantitative detection of choroidal blood flow and thickness in guinea pigs was achieved (Sen Zhang, Invest Ophthalmol Vis Sci. 2019 Jul. 1; 60(8):3074-3083).
# Vinpocetine is known to improve blood circulation. The inventors used the method of example 1 to detect changes of indicator signals of choroidal thickness ChT and choroidal blood flow ChBP of FDM (1 week and 2 weeks of administration) and LIM (1 week of administration) at different time points during the administration cycle.
# [2] = test system: form deprivation myopia model of guinea pigs; assay: FDM guinea pig model, eye drops (non-invasive administration); format: in vivo; details: for refraction difference between the eyes: FDM
# Protocol: The purpose of this experiment was to evaluate the effect of vinpocetine on myopia through non-invasive administration. All tested drugs were formulated into eye drops. […] No other active substances or excipients were added to the above eye drops.
# [3] = test system: form deprivation myopia (FDM) guinea pig model; assay: form deprivation myopia (FDM) guinea pig model, injection around the eyeball; format: in vivo
# Excerpt: The form deprivation and lens-induced guinea pig myopia model is a classic and recognized myopia animal model in the field. The model can be used to evaluate the efficacy and safety of drugs for treating myopia. The construction method of the model is well known to those skilled in the art. The animal modeling and administration route in this application refer to the scientific literature previously published by this research group (Sen Zhang, Invest Ophthalmol Vis Sci. 2019 Jul. 1; 60(8):3074-3083.; Miaozhen Pan, Exp Eye Res. 2021 January; 202:108332.), specifically, this application uses the following exemplary construction method of the form deprivation and lens-induced guinea pig myopia model:
# three-week-old tricolor guinea pigs (both male and female, simulating humans aged 3-26 years old) were used and raised in the experimental animal room of Wenzhou Medical University in a 12-hour light (400-500 lux)/12-hour dark environment with free access to water and food. The myopia model adopted monocular form deprivation (FD) and lens induction (LI) modeling methods. […] In the lens induction group, a −4D lens was fixed in front of the right eye of the animal, and the left eye obtained normal vision. For the above animals, the lenses were cleaned twice a day to prevent the lenses from blurring. The animals in the experimental group were administrated at 9:00-9:30 am every day. […] The administration process for each animal was controlled in about 10 seconds. Administration began on the day of modeling, and was continuous for 2 weeks for the form deprivation group and was continuous for 1 week for the lens induction group. This experiment has been reviewed by the Experimental Animal Ethics Committee of Wenzhou Medical University.
# The inventors prepared a 5 μM (i.e., 1.75 μg/mL) vinpocetine stock solution and stored at −80° C. The solvent was physiological saline. Before administration experiment, the stock solution was diluted with physiological saline to 1 μM, 0.1 μM, and 0.01 μM, respectively. During the formulation process of vinpocetine eye drops, the solubility can be increased by using conventional physical methods such as heating and stirring, or acids can also be used to adjust the PH value to increase solubility, and finally, the PH value can be adjusted to 7.31.
# 2. Form deprivation plus drug injection group: • wearing an eye mask on one eye and injecting vinpocetine (0.01 μM: 0.1 mL/day) into the eye wearing the eye mask for 2 weeks, sample size=15; • wearing an eye mask on one eye and injecting vinpocetine (0.1 μM: 0.1 mL/day) into the eye wearing the eye mask for 2 weeks, sample size=20; • wearing an eye mask on one eye and injecting vinpocetine 1.00 μM: 0.1 mL/day) into the eye wearing the eye mask for 2 weeks, sample size=22; • 3.
# All animals in the same model efficacy experiment were measured within the same time period, and the first measurement was at 3 weeks of age, that is, before drug administration. Refractions and eyeball parameters were measured for the animals in the above FDM group before the experiment, after 1 week of administration in the experiment and after 2 weeks of administration in the experiment and for the animals in the LIM group before the experiment, after 3 days of administration in the experiment and after 7 days of administration in the experiment, respectively. The refractions were measured using an eccentric infrared photoretinoscope (EIR) built in our laboratory. Each eye was measured three times and the average was taken as the final result. The axial parameters of the guinea pig's eyeballs were measured using the A-ultrasound probe in the CinescanA/B ultrasonic diagnostic instrument (QuantelMedical, Aviso, France). The ultrasonic frequency was 11 MHz. The ultrasonic propagation speeds of different refractive media of the eyeball were set as: 1557.5 m/s for the anterior chamber, 1723.3 m/s for the lens, and 1540 m/s for the vitreous body.
# [4] = test system: form deprivation myopia model of guinea pigs; assay: FDM guinea pig model, subconjunctival injection, salmeterol/tiotropium/vinpocetine; details: FDM, vinpocetine 1 μM alone, subconjunctival, 2 weeks
# Excerpt: The form deprivation myopia model of guinea pigs described in the present invention was used to evaluate the efficacy. […] On the first day of the experiment, guinea pigs were subjected to form deprivation at 8 a.m. using a mask method, with the right eye covered (experimental eye) and the left eye uncovered (contralateral eye). Starting from the day of modeling, solvents or drugs for the corresponding groups were given to the experimental eyes at 9-10 a.m. every day by eyeball subconjunctival injection at an injection volume of 100 μL, once a day for 2 weeks. The refraction and axial parameters of the animals were detected before the start of the efficacy experiment and at the end of the experiment. All data collection and processing methods were the same as in other embodiments of the present invention. The statistical basis was the difference between the experimental eye and the contralateral eye of the same subject individual.
# rabbits = details: rabbit, in vivo, cited from earlier work
# [5] = vinpocetine 5 μM eye drops, 2 weeks
# [6] = vinpocetine 5 μM eye drops, 2 weeks (rounded and actual value)
# [7] = vinpocetine 1 μM, 1 week, vs vehicle
structure (smiles),measurement,setting,value
CCOC(=O)C1=C[C@]2(CC)CCCN3CCc4c(n1c1ccccc41)[C@@H]32 [vinpocetine],choroidal thickness ChT,"[1]; 1 and 2 weeks, vs solvent injection group, not statistically significant",only slightly increased
same,choroidal blood perfusion ChBP,"[1]; 1 and 2 weeks, vs solvent injection group, p=0.285",only slightly increased
same,effect on choroidal vasodilation compared with atropine,"[1]; vinpocetine 0.1 μM, 2 weeks",not as good as atropine
same,improvement of choroidal blood flow among vinpocetine concentrations,"[1]; vinpocetine 1 μM, 1 week",least effective at improving choroidal blood flow
same,refraction difference between the eyes,"[2]; vinpocetine 1 μM eye drops 25 μL twice a day, 2 weeks",−4.81±1.72 D
same,refraction difference between the eyes,"[2]; vinpocetine 5 μM eye drops 25 μL twice a day, 2 weeks",−3.80±1.16 D
same,refraction inhibition rate,"[2]; vinpocetine 1 μM eye drops, 2 weeks",26.7%
same,inhibition rate for the axial length,[2]; [5],41.4%
same,inhibition rate for the vitreous chamber depth,[2]; [5],38.6%
same,refraction inhibition rate,[2]; [5],42.1%
same,axial length difference between the eyes,[2]; [6],0.09±0.04 mm and 0.0925±0.0406 mm
same,vitreous chamber depth difference between the eyes,[2]; [6],0.09±0.04 mm and 0.0869±0.0448 mm
same,refraction change towards negative and vitreous chamber depth elongation compared with the negative control group,"[3]; low-concentration vinpocetine 0.01 μM, two time points, no statistical difference",showed an inhibitory trend
same,refraction difference between the experimental eye and the contralateral eye,"[3]; vinpocetine 1 μM 0.1 mL/day peribulbar injection, 1 week",−2.44±1.88 D
same,axial length difference between the experimental eye and the contralateral eye,"[3]; vinpocetine 1 μM, 1 week",0.07±0.05 mm
same,vitreous chamber depth difference between the experimental eye and the contralateral eye,"[3]; vinpocetine 1 μM, 1 week",0.06±0.05 mm
same,inhibition rate for the axial length,[3]; [7],39.8%
same,inhibition rate for the vitreous chamber depth,[3]; [7],45.0%
same,refraction inhibition rate,[3]; [7],50.5%
same,axial length difference between the experimental eye and the contralateral eye,"[3]; vinpocetine 1 μM, 2 weeks",0.08±0.05 mm
same,inhibition rate for the axial length,"[3]; vinpocetine 1 μM, 2 weeks",48.2%
same,inhibition rate for the vitreous chamber depth,"[3]; vinpocetine 1 μM, 2 weeks",43.4%
same,refraction difference between the experimental eye and the contralateral eye,"[3]; vinpocetine 1 μM, 2 weeks",−3.36±2.21 D
same,refraction inhibition rate,"[3]; vinpocetine 1 μM, 2 weeks",50.1%
same,vitreous chamber depth difference between the experimental eye and the contralateral eye,"[3]; vinpocetine 1 μM, 2 weeks",0.09±0.05 mm
same,"refraction change towards negative, axial length elongation and vitreous chamber depth increase vs negative control",[4],significantly inhibited
same,toxicity findings,rabbits; 75 mg/kg/day,without any obvious abnormalities
same,toxicity findings,rabbits; 150 mg/kg,toxic effects of weight loss and food intake reduction
